From patent US8906904B2, “Alkoxy pyrazoles as soluble guanylate cyclase activators” (Boehringer Ingelheim International GmbH, priority 2012, dated 2014)

experiment: human liver microsome (HLM) metabolic stability assay; format: in vitro ADME; conditions: human liver microsomes; % hepatic blood flow calculated from t1/2
Procedure, shortened: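 Compounds at 1 uM incubated with human liver microsomes plus NADPH at 37° C., sampled at 0, 5, 15, 30 and 60 min into cold acetonitrile and quantified by LC/MS/MS. t½ from the slope of ln % remaining vs time; CLint, CLh and % Qh derived from it (n=1).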

HLM (% Qh) | SMILES
<24 | CCOc1c(C(=O)O)cnn1-c1cccc(-c2cccc(C)c2OCc2ccc3c(c2C)CCN(CC2COCCO2)C3)n1 (stereo in doubt) [Compound 185, 1-{6-[2-(2-(S)-1-[1,4]Dioxan-2-ylmethyl-5-methyl-1,2,3,4-tetrahydro-isoquinolin-6-ylmethoxy)-3-methyl-phenyl]-pyridin-2-yl}-5-ethoxy-1H-pyrazole-4-carboxylic acid]
<24 | COc1c(C(=O)O)cnn1-c1cccc(-c2cccc(C)c2OCc2ccc3c(c2)CCN(C2CCOC2)C3)n1 (centres unmarked) [Compound 15]
<24 | COc1c(C(=O)O)cnn1-c1cccc(-c2cccc(C)c2OCc2ccc3c(c2C)CCN(C2COC2)C3)n1 [Compound 16]
31 | COc1c(C(=O)O)cnn1-c1cccc(-c2cccc(C)c2OCc2ccc3c(c2Cl)CCN(C2COC2)C3)n1 [Compound 17]
<24 | COc1c(C(=O)O)cnn1-c1cccc(-c2cccc(C)c2OCc2ccc3c(c2Cl)CCN(C2CCOCC2)C3)n1 [Compound 18]
38 | COc1c(C(=O)O)cnn1-c1cccc(-c2cccc(C)c2OCc2ccc3c(c2Cl)CCN(C2CCC2)C3)n1 [Compound 20]
33 | COc1c(C(=O)O)cnn1-c1cccc(-c2cccc(C)c2OCc2ccc3c(c2Cl)CCN(C2CCOC2)C3)n1 (centres unmarked) [Compound 22]
<24 | COc1c(C(=O)O)cnn1-c1cccc(-c2cccc(C)c2OCc2ccc3c(c2C)CCN(C2CCOCC2)C3)n1 [Compound 27]
<24 | COc1c(C(=O)O)cnn1-c1cccc(-c2cccc(C)c2OCc2ccc3c(c2C)CCN(CC2(C)COC2)C3)n1 [Compound 28]
28 | COc1c(C(=O)O)cnn1-c1cccc(-c2cccc(C)c2OCc2ccc3c(c2C)CCN(CC2CC(F)(F)C2)C3)n1 [Compound 29]
<24 | COc1c(C(=O)O)cnn1-c1cccc(-c2cc(C)cc(C)c2OCc2ccc3c(c2C)CCN(C2CCOCC2)C3)n1 [Compound 180]
<24 | COc1c(C(=O)O)cnn1-c1cccc(-c2cc(C)cc(C)c2OCc2ccc3c(c2)CCN(C2CCOCC2)C3)n1 [Compound 181]
<24 | COc1ccc(OCc2ccc3c(c2C)CCN(C2CCOCC2)C3)c(-c2cccc(-n3ncc(C(=O)O)c3OC)n2)c1 [Compound 182]
<24 | COc1c(C(=O)O)cnn1-c1cccc(-c2cccc(C)c2OCc2ccc3c(c2C)CCN(C2CCOCC2)CC3)n1 [Compound 184]
26 | CCOc1c(C(=O)O)cnn1-c1cccc(-c2cccc(C)c2OCc2ccc3c(c2C)CCN(C[C@@H]2CCOC2)C3)n1 [Compound 189]
<24 | COc1c(C(=O)O)cnn1-c1cccc(-c2cccc(C)c2OCc2ccc3c(c2C)CCN(C[C@@H]2CCOC2)C3)n1 [Compound 191]
<24 | CCOc1c(C(=O)O)cnn1-c1cccc(-c2cccc(C)c2OCc2ccc3c(c2C)CCN(C[C@H]2CCOC2)C3)n1 [Compound 193]
<24 | CCOc1c(C(=O)O)cnn1-c1cccc(-c2cccc(C)c2OCc2ccc3c(c2C)CCN(C2CCOCC2)C3=O)n1 [Compound 194]

HLM (% Qh) | SMILES
<24 | COc1c(C(=O)O)cnn1-c1cccc(-c2cccc(C)c2OCc2ccc3c(c2C)CCN(C[C@@H]2CCCCO2)C3)n1 [Compound 198]
<24 | COc1c(C(=O)O)cnn1-c1cccc(-c2cccc(C)c2OCc2ccc3c(c2C)CCN(C[C@H]2CCCCO2)C3)n1 [Compound 199]
<24 | COc1c(C(=O)O)cnn1-c1cccc(-c2cccc(C)c2OCc2cc(F)c3c(c2)CCN(C2CCOCC2)C3)n1 [Compound 201]
<24 | COc1c(C(=O)O)cnn1-c1cccc(-c2cccc(C)c2OCc2ccc3c(c2C)CCN(C[C@H]2COCCO2)CC3)n1 [Compound 203]
<24 | COc1c(C(=O)O)cnn1-c1cccc(-c2cccc(C)c2OCc2ccc3c(c2C)CCN(C[C@@H]2COCCO2)CC3)n1 [Compound 204]
<24 | COc1c(C(=O)O)cnn1-c1cccc(-c2cccc(C)c2OCc2ccc3c(c2C)CCN([C@@H]2CCOC2)CC3)n1 [Compound 207]
<24 | CCOc1c(C(=O)O)cnn1-c1cccc(-c2cccc(C)c2OCc2ccc3c(c2C)CCN(CC2(F)COC2)C3)n1 [Compound 208]
<24 | CCOc1c(C(=O)O)cnn1-c1cccc(-c2cccc(C)c2OCc2ccc3c(c2OC)CCN(C2CCOCC2)C3)n1 [Compound 220]
<24 | CCOc1c(C(=O)O)cnn1-c1cccc(-c2cccc(C)c2OCc2ccc3c(c2OC)CCN(C2COC2)C3)n1 [Compound 221]
<24 | COc1c(C(=O)O)cnn1-c1cccc(-c2cccc(C)c2OCc2ccc3c(c2C)CCN(C[C@H]2CCCO2)CC3)n1 [Compound 222]
<24 | COc1c(C(=O)O)cnn1-c1cccc(-c2cccc(C)c2OCc2ccc3c(c2C)CCN(C[C@@H]2CCCO2)CC3)n1 [Compound 223]
<24 | CCOc1c(C(=O)O)cnn1-c1cccc(-c2cccc(C)c2OCc2ccc3c(c2C)CCN([C@H]2CCOC2)CC3)n1 [Compound 225]
52 | CCOc1c(C(=O)O)cnn1-c1cccc(-c2cccc(C)c2OCc2ccc3c(c2C)CCN(C[C@H]2CCO2)CC3)n1 [Compound 226]
25 | CCOc1c(C(=O)O)cnn1-c1cccc(-c2cccc(C)c2OCc2ccc3c(c2C)CCN([C@@H]2CCOC2)CC3)n1 [Compound 227]
44 | CCOc1c(C(=O)O)cnn1-c1cccc(-c2cccc(C)c2OCc2ccc3c(c2C)CCN(C[C@@H]2CCO2)CC3)n1 [Compound 228]
<24 | COc1c(C(=O)O)cnn1-c1cccc(-c2cccc(C)c2OCc2ccc3c(c2F)CCN(C[C@@H]2COCCO2)C3)n1 [Compound 231]
<24 | CCOc1c(C(=O)O)cnn1-c1cccc(-c2cccc(C)c2OCc2ccc3c(c2C)CCN(C[C@H]2CCCCO2)C3)n1 [Compound 232]

The next lines start with the compound.

SMILES | HLM (% Qh)
COc1c(C(=O)O)cnn1-c1cccc(-c2cccc(C)c2OCc2ccc3c(c2Cl)CCN(CC2(C)COC2)C3)n1 [Compound 19] | 29
COc1c(C(=O)O)cnn1-c1cccc(-c2cccc(C)c2OCc2ccc3c(c2Cl)CCN(CC(C)(C)C)C3)n1 [Compound 21] | <24
COCC(C)N1CCc2cc(COc3c(C)cccc3-c3cccc(-n4ncc(C(=O)O)c4OC)n3)ccc2C1 (centres unmarked) [Compound 23] | <24
COc1c(C(=O)O)cnn1-c1cccc(-c2cccc(C)c2OCc2ccc3c(c2)CCN(CC2CC2)C3)n1 [Compound 24] | <24
COc1c(C(=O)O)cnn1-c1cccc(-c2cccc(C)c2OCc2ccc3c(c2)CCN(CC2CCC2)C3)n1 [Compound 25] | 29
COc1c(C(=O)O)cnn1-c1cccc(-c2cccc(C)c2OCc2ccc3c(c2)CCN(CC2CC(F)(F)C2)C3)n1 [Compound 26] | 29
COc1c(C(=O)O)cnn1-c1cccc(-c2cccc(C)c2OCc2cc(C)c3c(c2)CCN(C2COC2)C3)n1 [Compound 186] | <24
COc1c(C(=O)O)cnn1-c1cccc(-c2cccc(C)c2OCc2ccc3c(c2)CCN(C[C@@H]2CCOC2)C3)n1 [Compound 188] | <24
CCOc1c(C(=O)O)cnn1-c1cccc(-c2cccc(C)c2OCc2ccc3c(c2C)CCN(CC2(C)COC2)CC3)n1 [Compound 190] | 43
CCOc1c(C(=O)O)cnn1-c1cccc(-c2cccc(C)c2OCc2cc(C)c3c(c2)CCN([C@@H]2CCCOC2)C3)n1 [Compound 195] | <24
CCOc1c(C(=O)O)cnn1-c1cccc(-c2cccc(C)c2OCc2ccc3c(c2C)CCN(C(C)COC)CC3)n1 (centres unmarked) [Compound 196] | <24
CCOc1c(C(=O)O)cnn1-c1cccc(-c2cccc(C)c2OCc2cc(C)c3c(c2)CCN([C@H]2CCCOC2)C3)n1 [Compound 197] | <24
CCOc1c(C(=O)O)cnn1-c1cccc(-c2cccc(C)c2OCc2cc(C)c3c(c2)CCN(CC2(C)COC2)C3)n1 [Compound 200] | 40
COc1c(C(=O)O)cnn1-c1cccc(-c2ccccc2OCc2ccc3c(c2)CCN(C2CCOCC2)C3)n1 [Compound 209] | <24
CCOc1c(C(=O)O)cnn1-c1cccc(-c2cccc(C)c2OCc2cc(C)c3c(c2)CCN(C(C)COC)C3)n1 (centres unmarked) [Compound 210] | <24
CCOc1c(C(=O)O)cnn1-c1cccc(-c2cccc(C)c2OCc2ccc3c(c2C)CCN(C[C@@H]2COCCO2)CC3)n1 [Compound 211] | <24
CCOc1c(C(=O)O)cnn1-c1cccc(-c2cccc(C)c2OCc2ccc3c(c2C)CCN(C[C@H]2COCCO2)CC3)n1 [Compound 212] | <24
CCOc1c(C(=O)O)cnn1-c1cccc(-c2cccc(C)c2OCc2ccc3c(c2)CCN(C2COC2)CC3)n1 [Compound 213] | <24
CCOc1c(C(=O)O)cnn1-c1cccc(-c2cccc(C)c2OCc2ccc3c(c2C)CCN(C[C@H]2CCCCO2)CC3)n1 [Compound 214] | <24
CCOc1c(C(=O)O)cnn1-c1cccc(-c2cccc(C)c2OCc2ccc3c(c2C)CCN(C[C@@H]2CCCCO2)CC3)n1 [Compound 215] | <24
COc1c(C(=O)O)cnn1-c1cccc(-c2cccc(C)c2OCc2ccc3c(c2)C(C)(C)CN(C2CCOC2)C3)n1 (centres unmarked) [Compound 217] | 89
COc1c(C(=O)O)cnn1-c1cccc(-c2cccc(C)c2OCc2ccc3c(c2)C(C)(C)CN(C2CCCOC2)C3)n1 (centres unmarked) [Compound 218] | 89
COc1c(C(=O)O)cnn1-c1cccc(-c2cccc(C)c2OCc2ccc3c(c2)C(C)(C)CN(CC2COCCO2)C3)n1 (centres unmarked) [Compound 219] | 89
COc1c(C(=O)O)cnn1-c1cccc(-c2cccc(C)c2OCc2cc(F)c3c(c2)CCN(C[C@H]2CCCCO2)C3)n1 [Compound 229] | 34
